Test systems include 786-0; CAKI-1; COLO 205; HL-60; HOP-62; K562; LOX IMVI; M14; MOLT-4; Malme-3M; RXF 393; SF-539; SK-MEL-28; SN12C; SNB-75; SW-620; TK-10; UACC-257; UACC-62.
Assay in all cases: NCI-60 cell line screen, 48 h

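Results reflect a 48-hour exposure of cells in 96-well plates to compound at five concentrations. Here, GI50 denotes the concentration required for 50% inhibition of growth.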 Calls of active or inactive are those of the source. Cut-off read from the data, not from the text of the source: active = GI50 up to about 1.1 µM and inactive = higher.

Take `O=C(NC(=O)c1cn(CCN(CCO)C(=O)NCCCCCCNC(=O)N(CCO)CCn2cc(C(=O)NC(=O)OCc3ccccc3)c(=O)[nH]c2=O)c(=O)[nH]c1=O)OCc1ccccc1`: the GI50 in the experiment with 786-0, in the experiment with CAKI-1, in the experiment with COLO 205, in the experiment on HL-60, in the experiment with HOP-62 and in the experiment with K562 was > 100 µM (inactive) in each case. Moreover, the GI50 with LOX IMVI, in the experiment on M14, in the experiment with MOLT-4, in the experiment on Malme-3M, with RXF 393 and with SF-539 was > 100 µM (inactive) each time. Besides, the GI50 in the experiment with SK-MEL-28, with SN12C, with SNB-75, in the experiment with SW-620, in the experiment with TK-10 and with UACC-257 was > 100 µM (inactive) in each case. For the same compound, in the experiment with UACC-62, the GI50 was > 100 µM (inactive).
On to `O=C(/N=c1/[nH]/c(=N/C(=O)c2ccccc2)ss1)c1ccccc1`, for which the GI50 in the experiment with 786-0 is 25.5 µM (inactive); in the experiment with CAKI-1, 30.3 µM (inactive); with COLO 205, 22.9 µM (inactive); in the experiment with HL-60, 14.7 µM (inactive); in the experiment on HOP-62, 21.9 µM (inactive); with K562, 20.4 µM (inactive). The GI50 in the experiment with LOX IMVI is 23.9 µM (inactive); with M14 it was 27.9 µM (inactive); in the experiment with MOLT-4 it was 24.7 µM (inactive); in the experiment on Malme-3M it was 9.89 µM (inactive); in the experiment on RXF 393, 29.7 µM (inactive); with SF-539, 12.9 µM (inactive). Besides, the GI50 with SK-MEL-28 was 23.9 µM (inactive); in the experiment on SN12C, 16.5 µM (inactive); in the experiment with SNB-75, 38.6 µM (inactive); with SW-620, 25.5 µM (inactive); with TK-10, 26.1 µM (inactive); with UACC-257, 14.6 µM (inactive). Also, in the experiment on UACC-62, the GI50 is > 10 µM (inactive).
Take `CCCc1c(C(=O)OCC)[nH]c(C(=O)CCC(=O)c2[nH]c(C(=O)OCC)c(CCC)c2C(=O)OCC)c1C(=O)OCC`: the GI50 in the experiment with 786-0 was 54.6 µM (inactive); in the experiment on CAKI-1 it was > 100 µM (inactive); with COLO 205, > 100 µM (inactive); in the experiment on HL-60, > 100 µM (inactive); in the experiment on K562 it was > 100 µM (inactive); with LOX IMVI, > 100 µM (inactive). The GI50 was > 100 µM (inactive) with M14; > 100 µM (inactive) in the experiment with MOLT-4; > 100 µM (inactive) in the experiment with Malme-3M; 70.5 µM (inactive) in the experiment on RXF 393; > 100 µM (inactive) in the experiment on SF-539; > 100 µM (inactive) with SK-MEL-28. Also, the GI50 was > 100 µM (inactive) with SN12C; 19.1 µM (inactive) in the experiment on SNB-75; > 100 µM (inactive) with SW-620; > 100 µM (inactive) with TK-10; > 100 µM (inactive) in the experiment on UACC-257; > 100 µM (inactive) with UACC-62.
Take `CCOc1ccc(NC(=O)C2=C(C)NC(C)=C(C(=O)Nc3ccc(OCC)cc3)C2c2ccccc2)cc1`: the GI50 was 88.7 µM (inactive) in the experiment with 786-0; > 100 µM (inactive) with CAKI-1; > 100 µM (inactive) with COLO 205; 29.9 µM (inactive) in the experiment on HL-60; > 100 µM (inactive) in the experiment with HOP-62; 38.5 µM (inactive) with K562. The GI50 was > 100 µM (inactive) in the experiment with LOX IMVI; > 100 µM (inactive) in the experiment with M14; 44.8 µM (inactive) with MOLT-4; > 100 µM (inactive) in the experiment on Malme-3M; > 100 µM (inactive) with RXF 393; > 100 µM (inactive) with SF-539. Also, the GI50 is > 100 µM (inactive) in the experiment with SK-MEL-28; > 100 µM (inactive) with SN12C; 95.7 µM (inactive) in the experiment on SNB-75; > 100 µM (inactive) in the experiment on SW-620; > 100 µM (inactive) with TK-10; > 100 µM (inactive) in the experiment on UACC-257.
For `CC1CC(c2cccc3c2OCO3)=Nc2ccccc2S1` (stereo not given), the GI50 in the experiment with 786-0, with CAKI-1, in the experiment with COLO 205, in the experiment on HL-60, in the experiment on K562 and in the experiment with LOX IMVI was > 100 µM (inactive) in each case. Besides, the GI50 in the experiment with M14, with MOLT-4, with Malme-3M, in the experiment with RXF 393, with SF-539 and in the experiment with SK-MEL-28 was > 100 µM (inactive) in each case. Also, the GI50 in the experiment with SN12C, in the experiment on SNB-75, in the experiment with SW-620, in the experiment on TK-10, in the experiment on UACC-257 and in the experiment on UACC-62 was > 100 µM (inactive) in each case.
With `O=C1CCC(=O)c2sccc2N1`, the GI50 in the experiment with 786-0, in the experiment on CAKI-1, in the experiment with COLO 205, with HL-60, in the experiment with HOP-62 and with K562 was > 100 µM (inactive) throughout. Also, the GI50 in the experiment on LOX IMVI, in the experiment with M14, with MOLT-4, in the experiment with Malme-3M, in the experiment with RXF 393 and with SF-539 was > 100 µM (inactive) each time. Moreover, the GI50 in the experiment with SK-MEL-28, in the experiment on SN12C, in the experiment with SNB-75, in the experiment with SW-620, with TK-10 and in the experiment with UACC-257 was > 100 µM (inactive) each time.
For `O=C(C(=O)c1ccc(Cc2ccc(C(=O)C(=O)c3ccccc3)cc2)cc1)c1ccccc1`, the GI50 in the experiment on 786-0, in the experiment with CAKI-1, in the experiment on COLO 205, in the experiment on HL-60, in the experiment with HOP-62 and with K562 was > 100 µM (inactive) each time. Also, the GI50 in the experiment on LOX IMVI, with M14, with Malme-3M, in the experiment with RXF 393, with SF-539 and in the experiment on SK-MEL-28 was > 100 µM (inactive) each time. Also, the GI50 in the experiment with SN12C, in the experiment on SNB-75, in the experiment with SW-620, in the experiment on TK-10, in the experiment with UACC-257 and in the experiment with UACC-62 was > 100 µM (inactive) each time.
Consider `Cc1cnc2[nH]c(-c3cccc(Cl)c3)cc(=O)c2c1`, for which the GI50 with 786-0 is 0.0547 µM (active); with CAKI-1 it was 0.0495 µM (active); in the experiment on COLO 205, 0.0807 µM (active); with HL-60 it was < 0.0176 µM (active); with HOP-62, 0.0282 µM (active); with K562, < 0.0151 µM (active). Further, the GI50 is 0.0438 µM (active) with LOX IMVI; 0.0406 µM (active) with M14; 0.0338 µM (active) with MOLT-4; 0.048 µM (active) in the experiment on Malme-3M; 0.0367 µM (active) in the experiment with RXF 393; 0.0194 µM (active) in the experiment on SF-539. Moreover, the GI50 was 0.315 µM (active) with SK-MEL-28; 0.0378 µM (active) in the experiment on SNB-75; 0.0119 µM (active) in the experiment on SW-620; 22.8 µM (inactive) in the experiment with TK-10; 1.05 µM (active) in the experiment on UACC-257; 0.0224 µM (active) with UACC-62.
For `CN(C)c1ccc(-c2nc(N)nc3c2CCCC3)cc1`, the GI50 in the experiment with 786-0 was 82 µM (inactive); with CAKI-1, 52.1 µM (inactive); in the experiment on COLO 205 it was 42.5 µM (inactive); with HL-60, 29.3 µM (inactive); in the experiment with HOP-62, 99.1 µM (inactive); with K562, 29.3 µM (inactive). In addition, the GI50 was 31.3 µM (inactive) in the experiment with LOX IMVI; 68.1 µM (inactive) in the experiment with M14; 30.2 µM (inactive) in the experiment with MOLT-4; 46.1 µM (inactive) with Malme-3M; 34 µM (inactive) with RXF 393; > 100 µM (inactive) in the experiment with SF-539. The GI50 with SK-MEL-28 is 61.8 µM (inactive); with SN12C, 37.9 µM (inactive); with SNB-75, 42 µM (inactive); with SW-620 it was > 100 µM (inactive); with TK-10 it was 49.1 µM (inactive); in the experiment on UACC-62, 44.7 µM (inactive).
Consider `O=C(N/C(=C\c1ccccc1O)c1nc2ccccc2[nH]1)c1ccccc1`, for which the GI50 with 786-0 was 48.1 µM (inactive); in the experiment with CAKI-1, > 100 µM (inactive); with COLO 205, > 100 µM (inactive); with HOP-62, 79.6 µM (inactive); in the experiment with K562, > 100 µM (inactive); with LOX IMVI it was 42.1 µM (inactive). Besides, the GI50 is > 100 µM (inactive) in the experiment on M14; > 100 µM (inactive) with MOLT-4; > 100 µM (inactive) in the experiment on Malme-3M; > 100 µM (inactive) with RXF 393; 75.7 µM (inactive) in the experiment with SF-539; > 100 µM (inactive) in the experiment on SK-MEL-28. In addition, the GI50 with SN12C is 89.7 µM (inactive); in the experiment on SNB-75 it was 12.8 µM (inactive); in the experiment on SW-620 it was > 100 µM (inactive); in the experiment on TK-10 it was 41.5 µM (inactive); with UACC-257, > 100 µM (inactive); in the experiment on UACC-62 it was > 100 µM (inactive).
Take `CCCn1c(SCC)c2cc3cc4ccccc4cc3cc2c1-c1nc(F)nc(F)n1`: the GI50 in the experiment with 786-0, with CAKI-1, in the experiment with COLO 205, in the experiment on HL-60, in the experiment on HOP-62 and in the experiment on K562 was > 100 µM (inactive) throughout. Moreover, the GI50 with LOX IMVI, with M14, with MOLT-4, in the experiment on Malme-3M, with RXF 393 and with SF-539 was > 100 µM (inactive) in each case. The GI50 in the experiment on SK-MEL-28, with SN12C, with SNB-75, with SW-620, in the experiment on TK-10 and with UACC-257 was > 100 µM (inactive) throughout.

Source of the values: ChEMBL document CHEMBL1201862, “PubChem BioAssay data set” (2004).
